In the NIST ThermoML archive (doi:10.1016/j.jct.2016.05.015):

Experiment: xn = mol fraction of the nth substance listed
Details: 100 kPa, Liquid; for viscosity: Capillary tube (Ostwald / Ubbelohde) method; for speed of sound: Frequency=2 MHz, Linear variable-path acoustic interferometer; for mass density: Vibrating tube method

Nc1cccc(Cl)c1 [3-chlorobenzenamine] + Brc1ccccc1
Details | mass density [kg/m3] | speed of sound [m/s] | viscosity [mPa·s]
303.15 K, x1 = 0.0902 | 1457.14 | 1162.5 | 1.364
303.15 K, x1 = 0.1842 | 1431.71 | 1191.5 | 1.741
303.15 K, x1 = 0.2789 | 1406 | 1222.1 | 2.101
303.15 K, x1 = 0.3759 | 1379.47 | 1255.1 | 2.454
303.15 K, x1 = 0.4745 | 1352.34 | 1290.5 | 2.795
303.15 K, x1 = 0.5763 | 1324.09 | 1329.2 | 3.131
303.15 K, x1 = 0.6782 | 1295.62 | 1370.2 | 3.446
303.15 K, x1 = 0.7852 | 1265.62 | 1416 | 3.752
303.15 K, x1 = 0.8914 | 1235.79 | 1464.5 | 4.022
303.15 K, x1 = 1 | 1205.32 | 1517.5 | 4.255
308.15 K, x1 = 0.0902 | 1451.19 | 1148.3 | 1.307
308.15 K, x1 = 0.1842 | 1425.93 | 1177.1 | 1.65
308.15 K, x1 = 0.2789 | 1400.36 | 1207.4 | 1.976
308.15 K, x1 = 0.3759 | 1373.99 | 1240.2 | 2.291
308.15 K, x1 = 0.4745 | 1346.99 | 1275.4 | 2.593
308.15 K, x1 = 0.5763 | 1318.91 | 1313.8 | 2.888
308.15 K, x1 = 0.6782 | 1290.63 | 1354.7 | 3.166
308.15 K, x1 = 0.7852 | 1260.78 | 1400.3 | 3.427
308.15 K, x1 = 0.8914 | 1231.09 | 1448.6 | 3.657
308.15 K, x1 = 1 | 1200.75 | 1501.2 | 3.842
313.15 K, x1 = 0.0902 | 1444.19 | 1134.9 | 1.223
313.15 K, x1 = 0.1842 | 1419.21 | 1163 | 1.533
313.15 K, x1 = 0.2789 | 1393.88 | 1192.8 | 1.826
313.15 K, x1 = 0.3759 | 1367.75 | 1224.9 | 2.104
313.15 K, x1 = 0.4745 | 1340.99 | 1259.3 | 2.372
313.15 K, x1 = 0.5763 | 1313.18 | 1296.9 | 2.632
313.15 K, x1 = 0.6782 | 1285.16 | 1336.9 | 2.876
313.15 K, x1 = 0.7852 | 1255.6 | 1381.6 | 3.105
313.15 K, x1 = 0.8914 | 1226.16 | 1428.7 | 3.293
313.15 K, x1 = 1 | 1196.02 | 1480.3 | 3.43
318.15 K, x1 = 0.0902 | 1437.77 | 1124.6 | 1.155
318.15 K, x1 = 0.1842 | 1412.99 | 1152.3 | 1.437
318.15 K, x1 = 0.2789 | 1387.82 | 1181.7 | 1.692
318.15 K, x1 = 0.3759 | 1361.85 | 1213.3 | 1.934
318.15 K, x1 = 0.4745 | 1335.26 | 1247.3 | 2.165
318.15 K, x1 = 0.5763 | 1307.62 | 1284.5 | 2.388
318.15 K, x1 = 0.6782 | 1279.81 | 1324 | 2.595
318.15 K, x1 = 0.7852 | 1250.46 | 1368 | 2.786
318.15 K, x1 = 0.8914 | 1221.22 | 1414.5 | 2.934
318.15 K, x1 = 1 | 1191.25 | 1464.8 | 3.022

Nc1cccc(Cl)c1 [3-chlorobenzenamine] + Clc1ccccc1
Details | mass density [kg/m3] | speed of sound [m/s] | viscosity [mPa·s]
303.15 K, x1 = 0.0895 | 1106.11 | 1265.6 | 1.126
303.15 K, x1 = 0.1802 | 1116.69 | 1284.1 | 1.516
303.15 K, x1 = 0.2935 | 1129.74 | 1308.9 | 1.975
303.15 K, x1 = 0.3821 | 1139.77 | 1329.6 | 2.317
303.15 K, x1 = 0.4956 | 1152.34 | 1358.1 | 2.738
303.15 K, x1 = 0.5823 | 1161.75 | 1381.5 | 3.046
303.15 K, x1 = 0.6923 | 1173.48 | 1413.3 | 3.417
303.15 K, x1 = 0.8012 | 1184.88 | 1447.5 | 3.756
303.15 K, x1 = 0.8856 | 1193.58 | 1476 | 3.991
303.15 K, x1 = 1 | 1205.32 | 1517.5 | 4.255
308.15 K, x1 = 0.0895 | 1100.43 | 1243.5 | 1.059
308.15 K, x1 = 0.1802 | 1111.15 | 1262.3 | 1.418
308.15 K, x1 = 0.2935 | 1124.32 | 1287.4 | 1.835
308.15 K, x1 = 0.3821 | 1134.43 | 1308.4 | 2.145
308.15 K, x1 = 0.4956 | 1147.15 | 1337.4 | 2.522
308.15 K, x1 = 0.5823 | 1156.68 | 1361.3 | 2.797
308.15 K, x1 = 0.6923 | 1168.55 | 1393.9 | 3.126
308.15 K, x1 = 0.8012 | 1180.09 | 1429 | 3.421
308.15 K, x1 = 0.8856 | 1188.91 | 1458.3 | 3.623
308.15 K, x1 = 1 | 1200.75 | 1501.2 | 3.842
313.15 K, x1 = 0.0895 | 1095.5 | 1223.6 | 0.9961
313.15 K, x1 = 0.1802 | 1106.27 | 1242.2 | 1.322
313.15 K, x1 = 0.2935 | 1119.45 | 1267.1 | 1.697
313.15 K, x1 = 0.3821 | 1129.56 | 1288 | 1.972
313.15 K, x1 = 0.4956 | 1142.29 | 1316.8 | 2.306
313.15 K, x1 = 0.5823 | 1151.83 | 1340.5 | 2.548
313.15 K, x1 = 0.6923 | 1163.77 | 1373.1 | 2.839
313.15 K, x1 = 0.8012 | 1175.35 | 1408.2 | 3.097
313.15 K, x1 = 0.8856 | 1184.21 | 1437.5 | 3.264
313.15 K, x1 = 1 | 1196.02 | 1480.3 | 3.43
318.15 K, x1 = 0.0895 | 1090.31 | 1198.7 | 0.9397
318.15 K, x1 = 0.1802 | 1101.12 | 1217.7 | 1.238
318.15 K, x1 = 0.2935 | 1114.34 | 1243.1 | 1.57
318.15 K, x1 = 0.3821 | 1124.49 | 1264.5 | 1.808
318.15 K, x1 = 0.4956 | 1137.26 | 1294.2 | 2.098
318.15 K, x1 = 0.5823 | 1146.85 | 1318.8 | 2.308
318.15 K, x1 = 0.6923 | 1158.87 | 1352.6 | 2.557
318.15 K, x1 = 0.8012 | 1170.53 | 1389.2 | 2.773
318.15 K, x1 = 0.8856 | 1179.42 | 1419.9 | 2.908
318.15 K, x1 = 1 | 1191.25 | 1464.8 | 3.022

Nc1cccc(Cl)c1 [3-chlorobenzenamine] + O=[N+]([O-])c1ccccc1
Details | mass density [kg/m3] | speed of sound [m/s] | viscosity [mPa·s]
303.15 K, x1 = 0.0812 | 1194.97 | 1445 | 1.938
303.15 K, x1 = 0.1725 | 1196.57 | 1452.6 | 2.253
303.15 K, x1 = 0.2623 | 1198.01 | 1460 | 2.537
303.15 K, x1 = 0.3725 | 1199.59 | 1468.9 | 2.863
303.15 K, x1 = 0.4854 | 1201 | 1478 | 3.179
303.15 K, x1 = 0.5896 | 1202.12 | 1486.4 | 3.456
303.15 K, x1 = 0.6785 | 1202.96 | 1493.5 | 3.679
303.15 K, x1 = 0.7825 | 1203.81 | 1501.6 | 3.915
303.15 K, x1 = 0.8905 | 1204.59 | 1509.8 | 4.117
303.15 K, x1 = 1 | 1205.32 | 1517.5 | 4.255
308.15 K, x1 = 0.0812 | 1189.92 | 1427.2 | 1.787
308.15 K, x1 = 0.1725 | 1191.59 | 1435 | 2.079
308.15 K, x1 = 0.2623 | 1193.07 | 1442.5 | 2.34
308.15 K, x1 = 0.3725 | 1194.69 | 1451.6 | 2.637
308.15 K, x1 = 0.4854 | 1196.16 | 1460.9 | 2.922
308.15 K, x1 = 0.5896 | 1197.35 | 1469.4 | 3.168
308.15 K, x1 = 0.6785 | 1198.25 | 1476.7 | 3.362
308.15 K, x1 = 0.7825 | 1199.18 | 1485 | 3.565
308.15 K, x1 = 0.8905 | 1200.03 | 1493.4 | 3.734
308.15 K, x1 = 1 | 1200.75 | 1501.2 | 3.842
313.15 K, x1 = 0.0812 | 1185.37 | 1409.1 | 1.666
313.15 K, x1 = 0.1725 | 1187.04 | 1416.6 | 1.935
313.15 K, x1 = 0.2623 | 1188.49 | 1423.8 | 2.167
313.15 K, x1 = 0.3725 | 1190.08 | 1432.6 | 2.427
313.15 K, x1 = 0.4854 | 1191.52 | 1441.5 | 2.674
313.15 K, x1 = 0.5896 | 1192.7 | 1449.8 | 2.889
313.15 K, x1 = 0.6785 | 1193.61 | 1456.8 | 3.059
313.15 K, x1 = 0.7825 | 1194.55 | 1465 | 3.234
313.15 K, x1 = 0.8905 | 1195.37 | 1473 | 3.369
313.15 K, x1 = 1 | 1196.02 | 1480.3 | 3.43
318.15 K, x1 = 0.0812 | 1179.19 | 1392.1 | 1.542
318.15 K, x1 = 0.1725 | 1181 | 1399.7 | 1.787
318.15 K, x1 = 0.2623 | 1182.58 | 1407 | 1.992
318.15 K, x1 = 0.3725 | 1184.35 | 1415.8 | 2.218
318.15 K, x1 = 0.4854 | 1185.97 | 1424.9 | 2.43
318.15 K, x1 = 0.5896 | 1187.32 | 1433.4 | 2.615
318.15 K, x1 = 0.6785 | 1188.37 | 1440.7 | 2.755
318.15 K, x1 = 0.7825 | 1189.5 | 1449.1 | 2.902
318.15 K, x1 = 0.8905 | 1190.49 | 1457.3 | 3.004
318.15 K, x1 = 1 | 1191.25 | 1464.8 | 3.022
